In a melting point compilation (Tetko et al.; mined from patent text by program, amines drawn as free bases though some values may be those of a salt):

Row | melting point [°C] | SMILES
1 | 214 to 215 | COc1ccc(C(=O)Nc2cnc3c(c2)CN(Cc2ccccc2)CC3)cc1Br
2 | 56 to 59 | Cc1cccc2cccc(O)c12
3 | 198 | CCN(CC)S(=O)(=O)c1cc(-c2csc(=Nc3ccc(Cl)cc3)n2C)ccc1Cl
4 | 73.5 to 84.5 | O=[N+]([O-])c1cc(-c2nc3ccccc3s2)cc([N+](=O)[O-])c1
5 | 273 to 275 | CCc1nc2c(N)nc3cc(CCC#N)ccc3c2n1CC1CCOCC1
6 | 132 to 133 | O=C(CCCc1cnoc1-c1ccccc1)Nc1ccc(-n2ccnc2)cc1
7 | 170 to 176 | COc1c(C)c2c(c(NS(C)(=O)=O)c1C/C=C(\C)CCC(=O)O)C(=O)OC2
8 | 192 to 193 | CC(O)c1ccc(NS(C)(=O)=O)c(Nc2ccc(F)cc2F)c1 (stereo unspecified)
9 | 227 to 228 | Cc1sc(C(N)=O)c2c1-c1nn(CC(F)(F)F)cc1CC2
10 | 62 to 65 | OC1CCCC1Oc1ccc(Oc2ccccc2)cc1 (stereo unspecified)
11 | 238 to 240 | Cc1ccc2c(c1)NC(=O)c1cccc3c1N2CC3
12 | 160 to 161 | N#Cc1cccc(-c2ccc(C#N)c(Cn3cncn3)c2)c1
13 | 73 to 74 | COC(=O)c1sc2ccccc2c1N=CN(C)C
14 | 124 to 127 | C=C1C(=O)N[C@@H](Cc2ccccc2)C(=O)N1Cc1ccccc1
15 | 180 to 182 | O=C(O)CCNC(=O)CCC(=O)Nc1cccc2ccccc12
16 | 140 to 141 | COCOc1ccccc1-c1cc(-c2cccc(C(=O)OC)c2OC)c(C#N)c(NC(=O)c2ccco2)n1
17 | 159 to 161 | O=C(NC1CCN(C2CCCCC2)C1)c1cc([N+](=O)[O-])cc([N+](=O)[O-])c1 (stereo unspecified)
18 | 57 to 58 | COC=C(C#CCON=C(C)c1cccc(C(F)(F)F)c1)C(=O)OC
19 | 166 to 168 | COc1cccc(OC)c1-c1cc(C(=O)NC2(C(=O)O)C3CC4CC(C3)CC2C4)nn1-c1ccc(C(=O)N(C)CCC(=O)O)cc1C(C)C (stereo unspecified)
20 | 74 to 79 | N#CSc1ccc(N)c(Br)c1
21 | > 300 | CCCCNCCCNCCCCCCCCNCCCNCCCC
22 | 140 to 142 | O=C(Nc1cc(Br)cc(C(F)(F)F)c1)Oc1ccc([N+](=O)[O-])cc1
23 | 148 to 150 | CC(C)(C)C(=O)Oc1cc(C=CC(=O)c2ccccc2)cc([N+](=O)[O-])c1O
24 | 86 to 91 | O=S(c1cc(Cl)c(-n2cccn2)c(Cl)c1)C(F)(F)F (stereo unspecified)
25 | 207 to 209 | COc1cc(Cl)ccc1C(=O)NC1CN(c2ccc(F)cc2)CCn2c1nc(-c1ccncn1)cc2=O (racemic)

Row | melting point [°C] | SMILES
26 | 114 to 115 | CCCOCCOc1ccc(-c2ccc3c(c2)C=C(C(=O)O)CCN3CCCOC)cc1
27 | 87 | Cc1ccncc1-n1nc(C)c(CC(=O)OCC2CC2)c1-c1ccccc1
28 | 111 to 113 | OCc1csc(-n2cccc2)n1
29 | 122 to 123 | COC(=O)CCC(=O)c1cc(C(C)C)c(Oc2nnnn2-c2ccccc2)c(C(C)C)c1
30 | 150 to 151 | O=C(NCCO)c1ccc2c3c(cc([N+](=O)[O-])c2c1)NCC3CCl (stereo unspecified)
31 | 211 to 214 | COc1cccc(-c2ncc3n2C=CN(C)C3)c1
32 | 222 to 224 | COc1ccc(-c2nn(C(C)c3oc4ccccc4c(=O)c3-c3cccc(F)c3)c3ncnc(N)c23)cc1F (stereo unspecified)
33 | 101 to 103 | O=C(O)CC=CCC(=O)NCCc1ccccc1
34 | 126 to 128 | OC1c2cc(OCc3ccc4ccccc4n3)ccc2OCC1Oc1cccnc1 (stereo unspecified)
35 | 151 | CC(=O)OC1CSC(Oc2ccnc(-c3ccc(F)nc3)c2)C(OC(C)=O)C1OC(C)=O (stereo unspecified)
36 | 132 to 133 | CC(CN(O)C(N)=O)OCc1cc2ccccc2s1 (stereo unspecified)
37 | 50 | COC(=O)c1cccc(CNC(=O)C2Cc3ccccc3N2S(=O)(=O)c2ccc(-c3cccc(C(F)(F)F)c3)cc2)c1 (stereo unspecified)
38 | 94 to 95 | Cn1nnnc1SCCCCSC1=Nc2ccccc2C(=O)NN1
39 | 160 to 162 | COC(=O)c1cc(OC(C)=O)c2cc[nH]c2c1
40 | 90 to 92 | O=C(Nc1ccc(N2CCSC2)c(F)c1)OCc1ccccc1
41 | 257 to 258 | O=C(O)c1ccc2c(c1)C(=O)N(c1ccccc1)C2=O
42 | > 300 | COc1ccc(C#Cc2cc(C(=O)O)nc(C(=O)O)c2)cc1
43 | 79 to 82 | CC(=O)OCCSC(F)(F)C(O)(Cn1cncn1)c1ccc(F)cc1F (stereo unspecified)
44 | 115 to 117 | CC(C)(C)c1nc2cc(N3CCCC3)c([N+](=O)[O-])cc2s1
45 | 230 to 235 | Cn1ccc2cc(N3Cc4ccc(O)cc4C3=O)ccc21
46 | 181 to 185 | Cc1cc2cc(CN3CCCC3)cnc2cc1NC(=O)c1ccc(-c2ccc(Cl)cc2)c(F)c1
47 | 14 | COC(=O)c1ccc(Oc2ccc(Oc3ccccc3)cc2)cc1
48 | 245 | COc1ccc(-c2n[nH]c(=O)c3cc(OC)ccc23)cc1
49 | 31 to 32 | COC(=O)NCCCCC1CCSS1 (stereo unspecified)
50 | 59 to 61 | COc1cc(C=CC(=O)OC2CC3C(O)C(OC(=O)C=Cc4cc(OC)c(OC)c(OC)c4)C(C2)N3C)cc(OC)c1OC (stereo unspecified)

Row | melting point [°C] | SMILES
51 | 88 to 90 | CCC1CCC(=NO)C=C1c1ccc(OCC(=O)O)c(Cl)c1Cl (stereo unspecified)
52 | 160 | CCCCc1nc2sccc2[nH]1
53 | 287 to 288 | COc1ccc2c(c1)[C@](C)(NC(=O)c1cc3ccccc3[nH]1)C(=O)N2c1ccc(F)cc1
54 | 53 to 55 | Oc1ccc(Oc2cccc(F)c2)cc1
55 | 123 to 124 | COc1cc(COc2nn(-c3ccccc3)cc2CCO)ccc1OCc1nc(-c2ccco2)oc1C
56 | 97 to 98 | COc1ccc(-c2nc(-c3ccccc3)no2)cc1
57 | 338 to 340 | COC(=O)NC(=O)Nc1nc2ccccc2s1
58 | 92 to 93 | COc1ccc(CC2NCCOc3c2cnn(C)c3=O)cc1 (stereo unspecified)
59 | 121 | O=C(O)Cc1cccc(C(=O)c2cc3ccsc3s2)c1
60 | 143 to 146 | CN1CCN(C2(CNC(=O)c3ccc(Cl)c(Cl)c3)CCCCC2)CC1
61 | 136 to 137 | CCOC(=O)C(=O)c1ccc(OC)s1
62 | 70 to 75 | O=C1c2ccccc2C(F)(F)C(F)(F)c2ccccc21
63 | 66.5 to 68.5 | O=C(c1ccc(F)cc1)C1CCN(CCCCl)CC1
64 | 94 to 96 | CCc1ccc(NC(C)=O)cc1
65 | 97 to 99 | CC(C#N)(CCC(=O)O)SC(=S)c1ccccc1 (stereo unspecified)
66 | 179 to 181 | CCOc1cscc1C(=O)Nc1cc(Cl)ccc1SSc1ccc(Cl)cc1NC(=O)c1cscc1OCC
67 | 150 to 151 | CCOC(=O)c1ccc(-c2cc(C(=O)OCC)c(N)[nH]2)cc1
68 | 99.5 to 100 | COCCCNc1nc2cc(Cl)c(Cl)cc2nc1-c1ccccn1
69 | 126 to 128 | [N-]=[N+]=Nc1nc(C(F)(F)F)nc(-c2ccccc2)c1-c1ccccc1
70 | 260 to 262 | Cc1nc(Nc2ccccc2)sc1-c1nc2ccccc2c(=O)n1-c1ccccc1
71 | 89 to 90 | CSCCOc1ccc(-c2coc3ccc(-c4nnc(C)o4)cc23)cc1
72 | 236 to 239 | CC(C)c1ccc(-c2cc(C(=O)O)c(-c3cccc(C(=O)O)c3)o2)cc1
73 | 72 to 73 | Cc1cc(CC(C)(C)C=O)cc(C)c1O
74 | 222 to 224 | CCS(=O)(=O)c1ccc(C(=O)NCc2ccc3c(c2)CN(C2CCC(=O)NC2=O)C3=O)cc1 (stereo unspecified)
75 | 249 | Cc1c(C(=O)N=C(N)N)cc(S(C)(=O)=O)c(-n2ccnc2)c1C

Row | melting point [°C] | SMILES
76 | 204 to 206 | COc1cnc2sc(S(=O)(=O)Cc3ccccc3)nn2c1=O
77 | 171 to 172 | COc1ccc(Cn2nc(-c3ccc(OC)cc3)c(-c3ccc(OC)cc3)cc2=O)cc1
78 | 177 to 178 | CCCOc1ccccc1-c1nc(NC(=O)CCC)cc(=O)[nH]1
79 | 192 to 194 | CN(O)C(=O)C(C)(C)Cc1ccc2c(c1)C(=O)c1ccccc1CO2
80 | 174 to 175 | COc1cc2cc(C(=O)N3CC(CCl)c4c3cc(N(C)C)c3ccccc43)[nH]c2c(OC)c1OC (stereo unspecified)
81 | 169 | Nc1nc(C2CCCCN2)ncc1-c1ccc(Cl)cc1Cl (stereo unspecified)
82 | 198 to 199 | Cc1ccc(Nc2nc(Cl)nc3ccccc23)cc1
83 | 79 to 82 | CON=C(C1=NCCS1)c1ccccc1COc1cc(C)ccc1C
84 | 154 to 155 | CC(C)NC(=N)NC(=N)NOCCCOc1ccc(OC(F)(F)F)cc1
85 | > 280 | O=C(Nc1ccccc1)NC1C(=O)Nc2ccccc2N(CC23CC4CC(CC(C4)C2)C3)C1=O (stereo unspecified)
86 | 152 to 153 | COc1ccc2c(c1)CC(=O)c1cc(C(C)C(=O)O)ccc1S2 (stereo unspecified)
87 | 96 | CCCCN(CCCC)CCCCOc1ccc(S(=O)(=O)c2c(C(C)C)cn3ccccc23)cc1
88 | 252 to 255 | Cc1cc(S(=O)(=O)O)ccc1NC(=O)NN
89 | 51 to 53 | CCC#CN1CCC(O)(Cc2ccccc2)CC1
90 | 134 to 136 | CCCN1CCN(C2=Nc3cc(Br)ccc3N3CCc4cccc2c43)CC1
91 | 212 to 214 | COc1cc(Nc2nccc(-c3sc(N4C=CC=NC4)nc3C)n2)ccc1N1CCOCC1
92 | 150 to 152 | COC(=O)COc1ccc(C(=O)CN2CCN(c3ccncc3)CC2)cc1
93 | 239 to 240 | CC(C)C1(C)N=C(c2nc3occ(Cl)c3cc2C(=O)O)NC1=O (stereo unspecified)
94 | 123 to 125 | CC(C)c1nc2cc(COc3ccc(CC4OC(=O)N(C(c5ccccc5)(c5ccccc5)c5ccccc5)C4=O)cc3)ccc2o1 (stereo unspecified)
95 | 179 to 182 | O=[N+]([O-])c1c(Cl)nc2ccccc2c1NCc1ccccn1
96 | 144 to 145 | COCCOc1ccc(/C=C/C(=O)O)c(Oc2ncc(Br)s2)c1
97 | 91 to 94 | CCCCSc1nc(N)c(C(=O)c2ccccc2)s1
98 | 101 to 106 | CC(C)C1SC=CNC1=O (racemic)

Row | SMILES | melting point [°C]
99 | C=C1CC2C(CCC3(C)C2C=CC3(C)O)C2(C)CCC(=O)C=C12 (stereo unspecified) | 162
100 | CCC(NS(=O)(=O)c1ccc(Cl)cc1)P(=O)(Oc1ccccc1)Oc1ccccc1 (stereo unspecified) | 136 to 138
101 | COC(=O)COc1cc2ccccc2c2c1c(C(=O)C(N)=O)c(C)n2Cc1cccc(-c2ccc(F)cc2)c1 | 157 to 159
